Laboratory results taken from PMC12677843, “Multidisciplinary Preclinical Investigations on Ferrocenyl, Ruthenocenyl, and Benzyl Derivatives of Niridazole as New Drug Candidates against Schistosomiasis” (Chemmedchem, 2025).
pEC50: −log10 of the molar value.

Legend:
SH-SY5Y cells = assay: SYTOX cell viability assay, SH-SY5Y; assay type: cell-based, human; conditions: 20 µM, 24 h, serum-free charcoal-treated medium, vs DMSO control (0.2%), mean
Description: The SYTOX cell viability assay was performed in SHSY5Y cells. Cells were treated with either compound (20 µM) or DMSO control (0.2%) for 24 h at 37 °C and 5% CO2 in serum‐free charcoal‐treated medium. Results were normalized to the DMSO control. Mean ± SD was calculated from three independent experiments, each performed in quadruplicate. […]
serum-free media containing either treatment at a concentration of 20 µM or DMSO (ITW Reagents Cat A3672) control (0.2 %).
Following 24 h of incubation, 12.5 μL of an XTT/phenazine methosulfate (PMS) (XTT Sigma Aldrich cat X4626, PMS Serva CAT: 3203) 0.02solution (1 mg/mL XTT and 7.5 μg/mL PMS) was added to each well. Absorbance was measured using a microplate reader (Biotek Synergy HT) at 450 nm (signal) and 650 nm (background), 2 h after the addition of the XTT/PMS solution. Individual backgrounds were subtracted and all results were normalized to DMSO control. Mean ± SD was determined from three independent experiments, each performed in quintuplicate.
SYTOX cell viability assay
The cytotoxic potential was additionally evaluated using the staining-based SYTOX viability assay. […] Data was acquired on the BioTeck Cytation5 microscope and evaluated by the manufacturer’s software (Gen5 Image Prime Version 3.12). […] Mean ± SD was determined from three independent experiments, each performed in quadruplicate. […]

[1] = test system: S. mansoni newly transformed schistosomula (NTS); assay: In vitro evaluation on newly transformed schistosomula (NTS); assay type: cell-based, Schistosoma mansoni
Description: 2. Experimental section for biological experiments
Stock solutions of the test compounds
Stock solution of a concentration of 10 mM in pure DMSO (Sigma-Aldrich, Switzerland) were prepared of the 12 compounds, these stock solutions were used for all in vitro evaluations from activity tests in S. mansoni to the cytotoxic determinations in HUH7 hepatocyte-derived carcinoma cells, and in SH-SY5Y neuroblastoma cells.
The solutions were thoroughly vortexed and sonicated to enable a good dissolution of the compounds and homogenous stock solutions.
2.1 In vitro evaluations in S. mansoni
In vitro evaluation on newly transformed schistosomula (NTS)
To obtain newly transformed schistosomula (NTS) the lifecycle of S. mansoni (strain originates from West Africa, Liberia) is maintained at the Swiss Tropical and Public Health Institute (Swiss TPH). As previously described, cercariae are collected from infected Biomphalaria glabrata snails and then mechanically transformed into NTS. 8 After HBSS (Gibco, Waltham MA, USA) washing to get rid of the detached tails, the NTS were kept overnight (min. 12 h, max. 24 h) in culture medium at 37 °C and 5 % CO2 to complete their transformation process, before the drug sensitivity assay was started. The drug assays were performed in the same culture medium consisting of medium M199 (Gibco, Waltham MA, USA) supplemented with 5 % v/v inactivated fetal calf serum (iFCS; Bioconcept AG, Allschwil, Switzerland), 1% antibiotics mixture developed by Mäser et al., 9 and 1 % penicillin 10,000 U/mL, and streptomycin 10 mg/mL solution (Sigma-Aldrich, Buchs, Switzerland). The assay was performed in a 96-well plate, with 30−40 NTS per well in a final volume of 250 μL. NTS incubated in culture medium containing 0.5 % DMSO but no drug served as negative controls.
Microscopic evaluation was performed after 24, 48 and 72 h of incubation of the parasites at 37 °C and 5 % CO 2. Their overall viability was scored from 0 (death) to 3 (full viability) by a phenotypic screening method based on their motility, morphology, […]
and granularity. […]

Question: What does the source list for `O=C1NCCN1c1ncc([N+](=O)[O-])s1` [Niridazole, niridazole]?
Answer: reduction of SH-SY5Y cell viability (SYTOX) (SH-SY5Y cells): no signs of toxicity; pEC50 ([1]; Schistosoma mansoni, 72 h incubation, 37 °C, 5% CO2): < 4.30; drug effect at 50 µM on S. mansoni NTS ([1]; highest tested concentration 50 µM): not impaired
